From article PMC12321279, “Novel 4,5‐Dihydrothiazole‐Phenylpiperazine Derivatives: Synthesis, Docking Studies and Pharmacological Evaluation as Serotonergic Agents” (Chemmedchem, 2025) come the findings set out here.

Data set [1] relates to larval zebrafish. The experiment in a line: Basic locomotor activity of larval zebrafish. The format is in vivo, zebrafish (Danio rerio). The conditions noted are these: 5 dpf larvae, 20 h incubation at maximum‐tolerated concentration (Figure 12), 30 min tracking. The method, then:
All experiments were conducted on zebrafish (Danio rerio) larvae up to 5 days post fertilization (dpf), therefore, in accordance with current European legislation, ethical permission to conduct assays was not required. However, housing and experimental procedures were performed in compliance with the National Institute of Health Guidelines for the Care and Use of Laboratory Animals and the European Union Directive of 22 September 2010 (2010/63/EU) on protecting animals used for scientific purposes. All efforts were taken to minimize larvae stress and suffering. Larvae were euthanized with an overdose of tricaine ([…]). The zebrafish facility of Experimental Medicine Centre (Medical University of Lublin, Poland) provided wild‐type zebrafish embryos of the AB strain. Embryos as well as larvae were maintained in Petri dishes filled with E3 embryo medium, i.e., fish water (1.5 mM HEPES, pH 7.6; 17.4 mM NaCl; 0.21 mM KCl; 0.12 mM MgSO4; and 0.18 mM Ca (NO3)2). These were maintained under standard, generally accepted housing conditions (temperature 28.5 ± 1 °C, light to dark cycle 14 h to 10 h). Plastic transfer Pasteur pipettes were used to replace medium each day. Before the respective behavioral tests were conducted, larvae at 4 dpf were incubated for 20 h in different arylpiperazine derivatives solutions of maximum‐tolerated concentrations (MCTs), determined during toxicological screening.^[ [30], [32] ^] The control group was exposed to equivalent concentration of DMSO solvent. All locomotor tracking tests were performed at the same period of the day. Basic locomotor activity was measured using an automated tracking device, Daniovision by Noldus, and the total distance traveled was quantified using EthoVision XT software of the same company (Wageningen, the Netherlands) over a 30 min long observation period. Larvae were placed in 48‐well plates, individually (single larva per well), using a plastic transfer pipette. The PTZ‐induced hyperlocomotion (acute seizure assay) was assessed in 5 dpf larval zebrafish (after 20 h incubation with tested derivatives at MCTs). After the incubation, larvae were exposed to an acute dose of PTZ (20 mM). Larval locomotor activity after exposure to PTZ was tracked (Daniovision by Noldus) over 30 mins, after 5‐mins of habituation. Additionally, larval locomotor activity was assessed in response to alternate lighting conditions (lights ON vs. lights OFF). Light intensity under illumination was 100%. Challenge to light/dark conditions lasted 10 min each, twice repeated.^[ [52] ^] Similarly, the data were recorded as the distance traveled (mm) by larvae when exposed to alternating lightning. All experiments were repeated three times, and data pooled. For statistical analysis and figure generation, GraphPad Prism 9.3.1 version (San Diego, CA, USA) was employed, and Grubbs test was applied to identify outliers. Shapiro‐Wilk test was then employed to assess whether data are normally distributed. Moreover, nonparametric ANOVA, Kruskal–Wallis, or Friedman (for repeated measures) test was used to analyze data, with statistical significance level set at p < 0.05. Data are presented as median or median + individual values.

Data set [2] deals with 5‐HT2A receptor (Rattus norvegicus, UniProt P14842). The experiment in a line: Inhibition of 5‐HT‐evoked contractions in isolated rat ileum. The arrangement: segments (1–1.5 cm) of ileum were removed, flushed of luminal contents, and placed in Krebs solution; from tissue; host or cells: isolated rat (Sprague-Dawley) ileum segments. The conditions noted are these: 5‐HT 10^−5 M, compounds 10^−8–10^−5 M; for Emax: read-out: EMAX, maximal inhibitory effect on 5‐HT‐induced contractions in the rat ileum; for IC50: IC50, inhibition of 5‐HT‐induced contractions in the rat ileum, contact time 10 min. The method, then:
Male rats (Sprague‐Dawley, 160–200 g; Charles River Laboratories; Calco, Italy) were manipulated and cared for in strict compliance with the principles of laboratory animal care. Experimental procedures were conducted in conformity with Italian (D.L. 26/2014) and European (directive 2010/63/EU) regulations on the protection of animals used for scientific purposes and approved by the Italian Ministry. Animal housing complied with recent pharmacological guidance.^[ [40] ^] All animals weighing 160–200 g were used after a 1‐week acclimation period (temperature 23 ± 2 °C; humidity 60%, free access to water and standard food).
The segments were prepared as previously described:^[ [41] ^] the segments were set up in such a way as to record contractions mainly from the longitudinal axis, in an organ bath containing 20 mL of Krebs solution, bubbled with 95% O2 and 5% CO2 and maintained at 37 °C. The tissues were connected to an isotonic transducer (load: 0.5 g), connected to Power Lab system (Ugo Basile, Comerio, Italy). Ileal segments were equilibrated for 60 min^[ [16] ^] followed by three repeated additions of submaximal concentration of 5‐HT (10^−5 M) in order to record stable control contractions. […] The contact time for each concentration was 10 min. The compounds were dissolved in DMSO. […] Results are expressed as mean (SEM). […] The IC50 and Emax values were calculated with the aid of a computer program (GraphPad Prism 5).

Sequence of 5‐HT2A receptor (P14842 whole entry): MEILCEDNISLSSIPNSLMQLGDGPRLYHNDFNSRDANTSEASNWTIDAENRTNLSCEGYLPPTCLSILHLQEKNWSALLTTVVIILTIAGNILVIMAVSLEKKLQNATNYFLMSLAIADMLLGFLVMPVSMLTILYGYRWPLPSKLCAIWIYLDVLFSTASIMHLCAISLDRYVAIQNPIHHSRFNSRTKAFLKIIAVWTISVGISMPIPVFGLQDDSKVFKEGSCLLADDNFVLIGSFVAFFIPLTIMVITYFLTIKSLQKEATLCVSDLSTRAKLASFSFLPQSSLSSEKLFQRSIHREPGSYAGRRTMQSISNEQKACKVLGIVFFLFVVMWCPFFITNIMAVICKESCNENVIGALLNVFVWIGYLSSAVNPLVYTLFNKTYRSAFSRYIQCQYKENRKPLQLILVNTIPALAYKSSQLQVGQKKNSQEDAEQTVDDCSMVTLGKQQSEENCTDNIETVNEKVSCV

Usually Emax stands for the maximal effect, on the per cent scale that the assay sets. As usually defined, the IC50 is the concentration needed to halve the response being measured. Low values mean inhibition by little substance, high ones a need for much substance. In the case of `O=C(NCCCN1CCN(c2ccc(C3=NCCS3)cc2)CC1)C1CC2C=CC1C2` (stereo not drawn) [FG‐18, Endo‐ N‐(3‐(4‐(4‐(4,5‐dihydrothiazol‐2‐yl)phenyl)piperazin‐1‐yl)propyl) bicyclo[2.2.1]hept‐5‐ene‐2‐carboxamide], the “basic locomotor activity (total distance traveled)” value (“basic locomotor activity” below) in data set [1] is recorded as “decreased”. Besides, in data set [2], the Emax came out at 32.8% and the IC50 was 2.97 µM.
On the same counts, the results for `O=C1C2C3C=CC(C3)C2C(=O)N1OCCCN1CCN(c2cccc(C3=NCCS3)c2)CC1` (centres unmarked) [FG‐8, 2‐(3‐(4‐(3‐(4,5‐dihydrothiazol‐2‐yl) phenyl) piperazin‐1‐yl) propoxy)‐3a,4,7,7a‐tetrahydro‐1H‐4,7‐methanoisoindole‐1,3(2H)‐dione] are “slightly decreased larval activity”, 21.4% and 0.155 µM.
On to `O=C1C2C3C=CC(C3)C2C(=O)N1OCCCN1CCN(c2ccccc2C2=NCCS2)CC1` (centres unmarked) [FG‐7, 2‐(3‐(4‐(2‐(4,5‐dihydrothiazol‐2‐yl) phenyl) piperazin‐1‐yl) propoxy)‐3a,4,7,7a‐tetrahydro‐1 H‐4,7‐methanoisoindole‐1,3(2 H)‐dione], for which the “basic locomotor activity” value in data set [1] was “slightly decreased larval activity”. Besides, in data set [2], the Emax turned out to be 24.5% and 1.79 µM corresponded to half-maximal inhibition (IC50).
Turning to `O=C(NCCCN1CCN(c2cccc(C3=NCCS3)c2)CC1)c1ccccn1` [FG‐2, N‐(3‐(4‐(3‐(4,5‐dihydrothiazol‐2‐yl) phenyl) piperazin‐1‐yl) propyl) picolinamide], in data set [2], the Emax came to 25.4% and the IC50 stood at 6.12 µM.
For the compound `O=C(NCCCN1CCN(c2ccccc2C2=NCCS2)CC1)c1ccncc1` [FG‐4, N‐(3‐(4‐(2‐(4,5‐dihydrothiazol‐2‐yl) phenyl) piperazin‐1‐yl) propyl) isonicotinamide], the “basic locomotor activity” value in data set [1] is recorded as “slightly decreased larval activity”.
In the case of `O=C(NCCCN1CCN(c2ccc(C3=NCCS3)cc2)CC1)c1ccncc1` [FG‐6, N‐(3‐(4‐(4‐(4,5‐dihydrothiazol‐2‐yl) phenyl) piperazin‐1‐yl) propyl) isonicotinamide], the “basic locomotor activity” value in data set [1] was “slightly decreased larval activity”.
Regarding `O=C(NCCCN1CCN(c2ccccc2C2=NCCS2)CC1)c1ccccn1` [FG‐1, N‐(3‐(4‐(2‐(4,5‐dihydrothiazol‐2‐yl) phenyl) piperazin‐1‐yl) propyl) picolinamide], the “basic locomotor activity” value in data set [1] is on record as “decreased”.
